# Source: BindingDB's records for doi:10.1016/j.bmcl.2010.04.069 (Boehringer Ingelheim Pharmaceuticals, 2010)
# Assay: Inhibition of CDC42
smiles,measurement,value
"O=C(Nc1cc2cc[nH]c(=O)c2cc1Cl)[C@@H]1CNC[C@H]1c1ccc(Cl)cc1 [(3S,4R)-N-(7-chloro-1-oxo-1,2-dihydroisoquinolin-6-yl)-4-(4-chlorophenyl)pyrrolidine-3-carboxamide]",IC50,54 nM
